Structures can show the parent of a compound that is named as a salt.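 Results reflect a 48-hour exposure of cells in 96-well plates to compound at five concentrations. GI50 marks 50% less growth.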 Activity calls are given as the source filed them. Cut-off read from the data, not from the text of the source: active = GI50 up to about 1.1 µM and inactive = higher.

The text below walks through data of ChEMBL document CHEMBL1201862, “PubChem BioAssay data set” (2004).

Test systems include RXF 393; SF-268; A549; UO-31; HCT-15; OVCAR-3; MOLT-4; TK-10; 786-0; DLD-1; SNB-19; M14; HL-60; IGROV-1; HCC 2998; K562; LOX IMVI; OVCAR-8; HOP-62.
What all share (assay): inhibition of tumour cell growth, NCI panel, 48 h

For `O=C(Nc1ccccc1[N+](=O)[O-])/C(=N/Nc1cccc(Cl)c1)c1c(O)c2ccccc2oc1=O`, the GI50 in the assay on RXF 393 was > 100 µM (inactive); with SF-268, 28.9 µM (inactive); with A549 it was > 100 µM (inactive); with UO-31 it was > 100 µM (inactive); in the assay on HCT-15 it was 58.1 µM; in the assay with OVCAR-3, 35.4 µM (inactive). The GI50 in the assay on MOLT-4 was 48 µM (inactive); in the assay with TK-10, > 100 µM (inactive); in the assay with 786-0, > 100 µM (inactive); with DLD-1, 49.3 µM (inactive); with SNB-19 it was > 100 µM (inactive); with M14, > 100 µM (inactive). In addition, the GI50 is > 10 µM (inactive) in the assay with HL-60; 89.3 µM (inactive) in the assay on IGROV-1; 84.1 µM (inactive) with HCC 2998; 25.2 µM (inactive) in the assay on K562; > 100 µM (inactive) in the assay with LOX IMVI.

In the case of `O=c1[nH]c(=O)n(C2CC(O)C(CO)O2)cc1C(F)(C(F)(F)F)C(F)(F)F` (configuration not stated), the GI50 was > 100 µM (inactive) in the assay on RXF 393; > 100 µM (inactive) in the assay on SF-268; > 100 µM (inactive) in the assay with UO-31; > 100 µM (inactive) in the assay on OVCAR-8; above 100 µM in the assay on HCT-15; > 100 µM (inactive) with OVCAR-3. In addition, the GI50 in the assay with MOLT-4, in the assay with TK-10, with 786-0, in the assay on DLD-1, with SNB-19 and in the assay with M14 was > 100 µM (inactive) in each case. Moreover, the GI50 in the assay with HOP-62, in the assay on HL-60, with IGROV-1, with K562 and in the assay on LOX IMVI was > 100 µM (inactive) throughout.

Turning to `CCCCN(CC)C(=O)C(=O)Cc1nc2ccc(C(=O)c3ccccc3)cc2nc1O`, the GI50 in the assay on RXF 393 was 25.5 µM (inactive); in the assay with SF-268, > 100 µM (inactive); with A549, > 100 µM (inactive); with UO-31, 33.3 µM (inactive); with OVCAR-8, > 100 µM (inactive); in the assay with HCT-15, 67.1 µM. The GI50 in the assay with OVCAR-3 is > 100 µM (inactive); in the assay with MOLT-4, 21.1 µM (inactive); in the assay with TK-10 it was > 84.5 µM (inactive); with 786-0, > 100 µM (inactive); in the assay on DLD-1, > 100 µM (inactive); with SNB-19 it was 98.6 µM (inactive). Further, the GI50 was > 100 µM (inactive) in the assay on M14; > 100 µM (inactive) in the assay with HOP-62; 20.8 µM (inactive) in the assay on HL-60; > 100 µM (inactive) with IGROV-1; 19.1 µM (inactive) in the assay with K562; > 84.7 µM (inactive) with LOX IMVI.

As to `OCC(CO)C1c2cccc3ccc4cccc1c4c23`, the GI50 was > 100 µM (inactive) with RXF 393; > 100 µM (inactive) in the assay on SF-268; > 100 µM (inactive) in the assay on A549; 62.5 µM (inactive) in the assay with UO-31; > 100 µM (inactive) in the assay on OVCAR-8; > 100 µM (inactive) in the assay on OVCAR-3. Moreover, the GI50 with MOLT-4, in the assay with TK-10, in the assay with 786-0, in the assay with DLD-1, in the assay on SNB-19 and in the assay on M14 was > 100 µM (inactive) throughout. The GI50 in the assay with HOP-62, in the assay on HL-60, in the assay with IGROV-1, with K562 and in the assay on LOX IMVI was > 100 µM (inactive) throughout.

For `Nc1nc(NCCO)c(N=O)c(=O)[nH]1`, the GI50 in the assay on RXF 393 is > 100 µM (inactive); with SF-268, > 100 µM (inactive); in the assay with A549, > 100 µM (inactive); in the assay with UO-31, > 100 µM (inactive); in the assay on OVCAR-8, > 100 µM (inactive); with HCT-15, above 100 µM. The GI50 in the assay with OVCAR-3, with TK-10, with 786-0, in the assay on DLD-1, with M14 and with HOP-62 was > 100 µM (inactive) each time. Further, the GI50 with HL-60, in the assay on IGROV-1, in the assay with K562 and in the assay on LOX IMVI was > 100 µM (inactive) throughout.

`CC(C)(C)c1cc(C(O)(C(F)(F)F)C(F)(F)F)c2c(c1)C(C(F)(F)F)(C(F)(F)F)OC(C(C)(C)C)N2` (configuration not stated): the GI50 is 0.382 µM (active) in the assay with RXF 393; 3.28 µM (inactive) in the assay with A549; 7.55 µM (inactive) in the assay with UO-31; 3.05 µM (inactive) with OVCAR-8; 2.99 µM with HCT-15; 2.58 µM (inactive) with OVCAR-3. Also, the GI50 with MOLT-4 was 1.63 µM (inactive); in the assay on TK-10, 3.27 µM (inactive); with 786-0 it was 3.24 µM (inactive); in the assay with DLD-1, 4.21 µM (inactive); with SNB-19, 5.79 µM (inactive); in the assay with M14, 5.13 µM (inactive). Besides, the GI50 in the assay with IGROV-1 is 4.95 µM (inactive); in the assay with HCC 2998, 3.88 µM (inactive); in the assay on K562, 2.39 µM (inactive).

Take `CCCNC(=S)NNC(=O)CSc1nc(-c2ccccc2)c(-c2ccccc2)[nH]1`: the GI50 is > 100 µM (inactive) in the assay with SF-268; 75.5 µM (inactive) with A549; 30.8 µM (inactive) in the assay with UO-31; 73.1 µM (inactive) in the assay with OVCAR-8; 49.3 µM with HCT-15; 28 µM (inactive) in the assay on OVCAR-3. For the same compound, the GI50 was 24.2 µM (inactive) in the assay on MOLT-4; 70.5 µM (inactive) with TK-10; 37 µM (inactive) in the assay with 786-0; 70.3 µM (inactive) in the assay with DLD-1; 88.1 µM (inactive) in the assay with SNB-19; 24.1 µM (inactive) with M14. The GI50 is > 100 µM (inactive) in the assay on HOP-62, 23.2 µM (inactive) in the assay on HL-60, 65 µM (inactive) in the assay with IGROV-1 and 48.2 µM (inactive) with LOX IMVI.

Take `CC1CC[P+](c2ccccc2)(c2ccccc2)CC1`: the GI50 in the assay on RXF 393 was > 100 µM (inactive); with A549 it was > 100 µM (inactive); with UO-31, > 100 µM (inactive); in the assay with OVCAR-8 it was > 100 µM (inactive); with HCT-15 it was above 100 µM; in the assay with OVCAR-3 it was 46.2 µM (inactive). The GI50 in the assay on MOLT-4 is > 100 µM (inactive); with TK-10 it was > 100 µM (inactive); in the assay with 786-0, > 100 µM (inactive); in the assay with DLD-1 it was > 100 µM (inactive); in the assay on SNB-19 it was 92.3 µM (inactive); in the assay on M14, 88.1 µM (inactive). For the same compound, the GI50 with HOP-62 is > 100 µM (inactive); in the assay on HL-60, 24.5 µM (inactive); in the assay on IGROV-1 it was 98.2 µM (inactive); with HCC 2998, 20.8 µM (inactive); in the assay with K562 it was 91.6 µM (inactive); with LOX IMVI it was 51.3 µM (inactive).

Take `CC/C(=N\NS(=O)(=O)c1ccccc1)c1ccccc1`: the GI50 in the assay with RXF 393 was > 100 µM (inactive); with SF-268, > 100 µM (inactive); in the assay with A549 it was > 100 µM (inactive); in the assay with UO-31 it was > 100 µM (inactive); in the assay on OVCAR-8 it was > 100 µM (inactive); in the assay on HCT-15 it was above 100 µM. For the same compound, the GI50 in the assay with OVCAR-3, in the assay on MOLT-4, in the assay on TK-10, with 786-0, in the assay with DLD-1 and in the assay with M14 was > 100 µM (inactive) in each case. Moreover, the GI50 in the assay on HOP-62, in the assay with HL-60, in the assay with IGROV-1, with HCC 2998, in the assay on K562 and with LOX IMVI was > 100 µM (inactive) each time.

On to `Cc1cc(C)nc(NS(=O)(=O)c2ccc(NC(=O)c3ccc(Cl)c4c(Nc5ccc(S(=O)(=O)Nc6nc(C)cc(C)n6)cc5)c5ccccc5nc34)cc2)n1`, for which the GI50 with RXF 393 was 2.16 µM (inactive); in the assay on SF-268 it was 4.41 µM (inactive); in the assay on A549 it was 22.8 µM (inactive); in the assay on UO-31 it was 24.9 µM (inactive); in the assay with OVCAR-8 it was 17.4 µM (inactive); in the assay with HCT-15, 26.9 µM. The GI50 in the assay on OVCAR-3 is 29.2 µM (inactive); in the assay on MOLT-4, 4.5 µM (inactive); in the assay on TK-10 it was 33.4 µM (inactive); in the assay on 786-0, 5.18 µM (inactive); in the assay with DLD-1, 21.9 µM (inactive); with SNB-19 it was 4.89 µM (inactive). Besides, the GI50 with M14 was 2.64 µM (inactive); in the assay with HOP-62, 6.44 µM (inactive); with HL-60, 3.15 µM (inactive); with IGROV-1 it was 3.31 µM (inactive); with K562 it was 9.95 µM (inactive); in the assay with LOX IMVI, 3.91 µM (inactive).

In the case of `COC(=O)C1=CO[C@@H](C)[C@@H]2Cn3ccc4c5ccccc5nc-4c3C[C@H]12` [ALSTONINE HYDROCHLORIDE], the GI50 in the assay with RXF 393 was > 100 µM (inactive); in the assay on SF-268, > 100 µM (inactive); with A549, > 100 µM (inactive); with UO-31, > 100 µM (inactive); in the assay on OVCAR-8, > 100 µM (inactive); with HCT-15, above 100 µM. Further, the GI50 in the assay on OVCAR-3 is 87.1 µM (inactive); with MOLT-4 it was 90.6 µM (inactive); with TK-10, > 100 µM (inactive); in the assay with 786-0, > 100 µM (inactive); with DLD-1 it was > 100 µM (inactive); with SNB-19, > 100 µM (inactive). For the same compound, the GI50 with M14 was > 100 µM (inactive); in the assay on HOP-62 it was > 100 µM (inactive); in the assay on IGROV-1, > 100 µM (inactive); in the assay on K562, 55.2 µM (inactive); in the assay on LOX IMVI it was > 100 µM (inactive).
